In patent publication US12655139B2, “Isoxazolidines as RIPK1 inhibitors and use thereof” (SANOFI, priority 2020, dated 2026):
Where two headings read alike, the source gives them in different places.

Key:
[1] = system: U937 cells; assay: Cellular assay in U937 cells on cell death (necroptosis), TNFα/zVAD.fmk; format: cell-based
How it was run: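 U937 cells with 100 ng/ml TNFα plus 50 μM zVAD.fmk (pre-addition suspension levels) received 10 compound concentrations (10 μM–0.26 nM or 1 μM–0.07 nM) for 18–24 h at 37 °C. Live cells were read by MTS formazan absorbance at 490 nm after 4 h. % inhibition is relative to the maximal value without TNFα/zVAD.fmk.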

[2] = target: T1, hRIPK1 (aa 1-375) fusion protein (Homo sapiens, UniProt Q13546); assay: ADP-Glo kinase assay, RIPK1 autophosphorylation; format: biochemical
T1 construct: hRIPK1 (aa 1-375) fusion protein
T1 sequence (Q13546 1-375): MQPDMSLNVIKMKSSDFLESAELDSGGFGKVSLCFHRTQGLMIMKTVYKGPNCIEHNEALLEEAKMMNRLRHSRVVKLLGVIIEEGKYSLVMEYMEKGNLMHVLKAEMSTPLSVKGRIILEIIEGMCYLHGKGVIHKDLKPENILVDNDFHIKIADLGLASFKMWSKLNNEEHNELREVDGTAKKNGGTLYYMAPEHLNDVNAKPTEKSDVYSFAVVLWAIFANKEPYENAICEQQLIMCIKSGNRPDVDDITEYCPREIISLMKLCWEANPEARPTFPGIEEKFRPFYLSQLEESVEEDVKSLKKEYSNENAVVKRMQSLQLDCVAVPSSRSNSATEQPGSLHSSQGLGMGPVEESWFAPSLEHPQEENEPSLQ

[3] = Homo sapiens, U-937, Table 2, read-out: U937 IC50

Row | IC50 ([2]; Table 1) [nM] | IC50 ([2]; Key compound table 4) [nM] | Structure (SMILES) | IC50 [1, 3] [µM] | IC50 ([1]; Table 2, read-out: U937 IC50) [µM] | IC50 ([1]; Homo sapiens, U-937, Key compound table 4, read-out: U937 IC50 (uM) Mean) [µM]
1 | 14.9 |  | Cc1cnc([C@@H]2CCON2C(=O)C2CCN(c3cc(C#N)ncn3)CC2)cn1 [compound 91, 6-[4-[(3S)-3-(5-methylpyrazin-2-yl)isoxazolidine-2-carbonyl]-1-piperidyl]pyrimidine-4-carbonitrile] | 0.183 |  | 
2 | 9.99 |  | N#Cc1cc(N2CCC(C(=O)N3OCCC3c3cncc(F)c3)CC2)ncn1 (racemic) [Ex. 049*] | 0.0411 |  | 
3 | 24 |  | Cc1cncc([C@@H]2CCON2C(=O)C2CCN(c3ncc(C)c(C(N)=O)n3)CC2)n1 [Ex. 097] | 0.0415 |  | 
4 | 39.2 |  | N#Cc1ccnc(N2CCC(F)(C(=O)N3OCC[C@H]3c3cnccn3)C(F)(F)C2)n1 (stereo partly drawn) [compound 124, 2-[3,3,4-trifluoro-4-[(3S)-3-pyrazin-2-ylisoxazolidine-2-carbonyl]-1-piperidyl]pyrimidine-4-carbonitrile] | 0.0313 |  | 
5 | 21.9 |  | N#Cc1cncc([C@@H]2CCON2C(=O)C2CCN(c3ncc(F)c(C(N)=O)n3)CC2F)c1 (some centres unmarked) [Ex. 154] |  | 0.0388 | 
6 | 71.3 |  | Cc1c(F)cncc1[C@@H]1CCON1C(=O)C1CCN(c2nccc(C#N)n2)CC1 [compound 140, (S)-2-(4-(3-(5-fluoro-4-methylpyridin-3-yl)isoxazolidine-2-carbonyl)piperidin-1-yl)pyrimidine-4-carbonitrile] | 0.55 |  | 
7 |  | 8 | NC(=O)c1nc(N2CCC(C(=O)N3OCC[C@H]3c3cnccn3)CC2)ncc1F [Ex. 075] |  |  | 0.003
8 | 23.4 |  | N#Cc1cncc([C@@H]2CCON2C(=O)C2CCN(c3cc(F)ncn3)CC2)c1 [compound 169, (S)-5-(2-(1-(6-fluoropyrimidin-4-yl)piperidine-4-carbonyl)isoxazolidin-3-yl)nicotinonitrile] | 0.119 |  | 
9 | 26.3 |  | N#Cc1cncc([C@@H]2CCON2C(=O)C2(F)CCN(c3nccc(C#N)n3)CC2(F)F)c1 (mixture of isomers) [Ex. 123] | 0.0442 |  | 
10 | 364 |  | N#Cc1ccc([C@@H]2CCON2C(=O)C2CCN(c3cc(C(N)=O)ncn3)CC2)nc1 [Ex. 107] | 7.52 |  | 
11 | 31.1 |  | N#Cc1cc([C@@H]2CCON2C(=O)C2CCN(c3ncc(F)c(C(N)=O)n3)CC2)co1 [Ex. 167] | 0.048 |  | 
12 | 25 |  | NC(=O)c1nc(N2CCC(F)(C(=O)N3OCC[C@H]3c3cncc(F)c3)CC2)ncc1F [compound 126, (S)-5-fluoro-2-(4-fluoro-4-(3-(5-fluoropyridin-3-yl)isoxazolidine-2-carbonyl)piperidin-1-yl)pyrimidine-4-carboxamide] | 0.0396 |  | 
13 | 51.9 |  | N#Cc1cc([C@@H]2CCON2C(=O)C2CCN(c3nccc(C(N)=O)n3)CC2)co1 [Ex. 171] | 0.0858 |  | 
14 | > 33000 |  | N#Cc1cncc([C@@H]2CCON2C(=O)C2CCN(c3cnc(Cl)nc3C(=O)O)CC2)c1 [Ex. 121] | 4.44 |  | 
15 | 51.6 |  | NC(=O)c1ccnc(N2CCC(C(=O)N3OCCC3c3cncc(CO)c3)CC2)n1 (racemic) [Ex. 025*, 2-[4-[3-[5-(Hydroxymethyl)-3-pyridyl]isoxazolidine-2-carbonyl]-1-piperidyl]pyrimidine-4-carboxamide] | 0.498 |  | 
16 | 19.8 |  | Cc1cncc([C@@H]2CCON2C(=O)C2CCN(c3cc(C#N)ncn3)CC2)c1 [compound 133, (S)-6-(4-(3-(5-methylpyridin-3-yl)isoxazolidine-2-carbonyl)piperidin-1-yl)pyrimidine-4-carbonitrile] | 0.0494 |  | 
17 | 21.1 |  | N#Cc1cncc([C@@H]2CCON2C(=O)C2CCN(c3ncc(F)c(C(N)=O)n3)CC2)n1 [compound 119] | 0.00555 |  | 
18 | 30.3 |  | N#Cc1nc([C@@H]2CCON2C(=O)C2CCN(c3ncc(F)c(C(N)=O)n3)CC2)cs1 [Ex. 189] | 0.102 |  | 
19 | 35.1 |  | N#Cc1cncc([C@@H]2CCON2C(=O)C2CCN(c3cnc(C#N)cn3)CC2)c1 [Ex. 066] | 0.205 |  | 
